“Also recorded” adds a separate entry of the source. Like-named read-outs stand apart in the source and are kept apart here.
Columns and labels:
[1] = biological target: beta-receptors from rat cortical membranes; assay: Non-specific β-receptor radioligand binding, [3H]DHA; conditions: read-out: Non-selective β-adrenergic IC50
Experimental: (§1) Non-selective β-adrenergic and β1-adrenergic radioligand binding assays were performed using rat cortical membranes; β2-adrenergic receptor assays were performed using membranes isolated from CHO cells expressing human, recombinant b2-adrenergic receptor; non-selective α1-adrenergic receptor assays were performed using rat forebrain membranes; and PDE3 binding assays were performed on human platelets. Values in percent illustrate percent inhibition at 1000 nM concentration.

PDE3 = biological target: T1, PDE3 (Homo sapiens, UniProt Q14432); assay: In vitro assay for cAMP PDE-3 inhibitory activity; type: biochemical
T1 construct: from tissue; host or cells: human platelets
T1 sequence (Q14432 whole entry): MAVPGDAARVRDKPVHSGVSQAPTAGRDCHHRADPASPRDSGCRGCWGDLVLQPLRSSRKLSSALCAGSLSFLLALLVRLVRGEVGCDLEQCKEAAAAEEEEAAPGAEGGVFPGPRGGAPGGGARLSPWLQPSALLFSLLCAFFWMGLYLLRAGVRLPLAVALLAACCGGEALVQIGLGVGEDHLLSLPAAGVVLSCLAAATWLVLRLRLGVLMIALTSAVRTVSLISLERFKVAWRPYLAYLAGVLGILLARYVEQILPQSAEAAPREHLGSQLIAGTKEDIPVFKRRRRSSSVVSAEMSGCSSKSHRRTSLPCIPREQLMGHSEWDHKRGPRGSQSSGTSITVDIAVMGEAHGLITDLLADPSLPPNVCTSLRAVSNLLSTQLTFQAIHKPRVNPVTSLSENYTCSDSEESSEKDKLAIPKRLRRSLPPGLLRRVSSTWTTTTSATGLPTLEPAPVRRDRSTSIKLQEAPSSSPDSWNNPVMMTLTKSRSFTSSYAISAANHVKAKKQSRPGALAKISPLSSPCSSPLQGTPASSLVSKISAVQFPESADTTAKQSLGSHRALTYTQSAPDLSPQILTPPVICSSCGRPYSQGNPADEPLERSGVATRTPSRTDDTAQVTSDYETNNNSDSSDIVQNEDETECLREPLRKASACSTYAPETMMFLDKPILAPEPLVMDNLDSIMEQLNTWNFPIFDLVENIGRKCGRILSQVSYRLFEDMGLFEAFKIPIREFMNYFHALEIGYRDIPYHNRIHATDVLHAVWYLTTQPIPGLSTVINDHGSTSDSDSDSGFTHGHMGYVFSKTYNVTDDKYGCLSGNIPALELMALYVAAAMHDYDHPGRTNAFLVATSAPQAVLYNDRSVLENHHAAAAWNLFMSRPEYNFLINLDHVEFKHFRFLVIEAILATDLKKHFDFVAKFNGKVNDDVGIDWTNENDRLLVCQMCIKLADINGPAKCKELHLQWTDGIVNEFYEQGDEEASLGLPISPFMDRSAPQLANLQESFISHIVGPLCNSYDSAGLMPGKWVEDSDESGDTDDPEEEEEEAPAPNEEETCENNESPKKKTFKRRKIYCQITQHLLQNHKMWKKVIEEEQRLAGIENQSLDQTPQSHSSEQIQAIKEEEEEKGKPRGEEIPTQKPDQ

[2] = biological target: T2, human recombinant beta-1 receptors (Homo sapiens, UniProt P08588); assay: β1-receptor radioligand binding, [125I] iodocyanopindolol, CHO-REX16 cells; conditions: at 100 nM
T2 construct: expressed in transfected cells; host or cells: CHO-REX16 cells
T2 sequence (P08588 whole entry): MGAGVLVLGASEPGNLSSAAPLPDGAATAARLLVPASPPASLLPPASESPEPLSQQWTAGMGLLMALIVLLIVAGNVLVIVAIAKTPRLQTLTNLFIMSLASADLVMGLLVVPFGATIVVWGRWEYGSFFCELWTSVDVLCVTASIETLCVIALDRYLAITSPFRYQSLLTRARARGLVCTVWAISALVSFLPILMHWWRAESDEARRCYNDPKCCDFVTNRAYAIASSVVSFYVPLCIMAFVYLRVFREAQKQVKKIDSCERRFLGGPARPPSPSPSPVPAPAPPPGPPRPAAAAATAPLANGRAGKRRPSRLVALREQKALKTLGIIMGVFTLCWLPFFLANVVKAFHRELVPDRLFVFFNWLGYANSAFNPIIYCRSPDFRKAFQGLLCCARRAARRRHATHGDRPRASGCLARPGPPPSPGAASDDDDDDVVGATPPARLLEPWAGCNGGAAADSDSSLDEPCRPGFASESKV
Experimental: […] receptor binding was measured in human recombinant beta-1 receptors expressed in CHO-REX16 cells, using [^125I] (-) iodocyanopindolol (2000 Ci/mmol) as the radioligand, as described in Kalaria et al., J. Neurochem. 53: 1772-81 (1998), and Minneman et al., Mol. Pharmacol. 16: 34-46 (1979).

[3] = test system: White New Zealand male rabbits; assay: In vivo β-adrenergic blockade, isoproterenol challenge (Protocol 1); set-up: species or system rabbit
Experimental: (§2) Studies were performed on White New Zealand male rabbits (2-3 kg weight). Animals were initially anesthetized with ketamine (50 mg/kg; IM) and xylazine (6 mg/kg, IM). Subsequently, animals were intubated (via tracheotomy; 3 mm tube) and ventilated with 2% isoflurane (mixed in 95% O2+5% CO2). Each rabbit was instrumented for LV pressure (3F Millar catheter) through right carotid artery, arterial pressure (3F catheter, Cook Instruments) through left femoral artery, which was connected to a fluid-filled pressure transducer (BD Instruments), and ECG. Both pressure transducers were zeroed against atmospheric pressure, and calibrated before each study using an analog manometer. Upon completion of instrumentation, isoflurane was reduced to 1.25%, and the animal was covered for maintenance of body core temperature. Arterial and LV blood pressures (LVP) and the ECG signals were simultaneously digitally recorded on a PC. The recording system (Gould Instruments) and the corresponding software (Ponema, Gould Instruments) facilitated detailed calculation of various parameters directly from all signals and record on a separate file with a 1 sec resolution. Upon completion of the study protocol, rabbits were euthenized by isoflurane overdose (5% for at least 1 minute) and cardiac arrest through IV infusion of 5 ml 3 molar potassium chloride.
(§3) Once the physiological variables were stable, effects of each drug on hemodynamics and ECG were determined based on two different protocols: 1) infusion of a compound of the present invention to determine the effects of the compound itself mainly on contractility, and other hemodynamic indices; and 2) infusion of a compound of the present invention while the system was challenged with 0.5 ug/kg isoproterenol to determine the beta-adrenergic antagonism properties of each tested compound.
(§4) White New Zealand male rabbits (2-3 kg) were anesthetized and ventilated (95% O2+5% CO2) with 1.25% isoflurane. Each animal was instrumented for LV pressure (Millar, through left carotid artery), arterial pressure (left femoral artery), infusion (jugular vein), and electrocardiogram. The animals were administered intravenously based on one of these protocols:
Protocol 1: β-adrenergic blockade (isoproterenol challenge).

[4] = test system: naive anesthetized canines; assay: Contractility in naive anesthetized canines (protocol 2); type: in vivo, canine; conditions: administered alone (protocol 2), FIG. 17
[5] = test system: White New Zealand male rabbits; assay: In vivo hemodynamic effects of compounds administered alone (Protocol 2); set-up: species or system rabbit
Experimental: as §2, §3, §4
Protocol 2: PDE3 inhibition (effects of compounds when administered alone).

[6] = test system: White New Zealand male rabbits; assay: In vivo β-adrenergic blockade, isoproterenol challenge (Protocol 1); set-up: species or system rabbit; dose or concentration left out as unconfirmed; conditions: during isoproterenol challenge, intravenous, FIG. 10
β1-adrenergic receptor = biological target: T3, β1-adrenergic receptor (Rattus norvegicus, UniProt P18090); assay: β1-adrenergic radioligand binding assay using rat cortical membranes
T3 construct: from tissue; host or cells: rat cortical membranes
T3 sequence (P18090 whole entry): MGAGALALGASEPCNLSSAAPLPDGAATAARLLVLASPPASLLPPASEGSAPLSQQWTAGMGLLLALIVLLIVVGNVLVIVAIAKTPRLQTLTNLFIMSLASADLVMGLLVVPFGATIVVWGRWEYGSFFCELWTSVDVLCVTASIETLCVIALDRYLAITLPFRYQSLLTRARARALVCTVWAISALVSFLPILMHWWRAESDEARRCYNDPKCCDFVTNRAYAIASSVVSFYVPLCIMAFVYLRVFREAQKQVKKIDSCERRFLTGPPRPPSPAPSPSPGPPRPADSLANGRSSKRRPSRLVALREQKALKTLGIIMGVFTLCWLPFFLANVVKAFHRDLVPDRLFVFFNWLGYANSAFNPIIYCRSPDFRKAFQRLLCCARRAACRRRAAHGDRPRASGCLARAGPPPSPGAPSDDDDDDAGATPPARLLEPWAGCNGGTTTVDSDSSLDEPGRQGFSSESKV
Experimental: as §1

[7] = Compound 25 0.3 mg/kg, carvedilol 0.1 mg/kg, Protocol 1, FIG. 13

O=C1CCC(c2ccc(OCCNCC(O)COc3cccc4[nH]c5ccccc5c34)c(Cl)c2)=NN1 (racemic) [Compound 25, 6-(4-{2-[3-(9H-Carbazol-4-yloxy)-2-hydroxy-propylamino]-ethoxy}-3-chloro-phenyl)-4,5-dihydro-2H-pyridazin-3-one]
IC50 [1]: 3 nM
IC50 (PDE3; human platelet cyclic AMP phosphodiesterase, bound stated, read-out: PDE3 inhibition IC50): < 1000 nM
IC50 (PDE3; human platelet cyclic AMP phosphodiesterase, bound stated, read-out: PDE IC50 inhibition values): < 100 nM
IC50 (PDE3; human platelets, read-out: PDE3 IC50): 19 nM
inhibition at 0.1 µM [2]: > 25%
contractility (LV+dP/dtmax) at ED50 [3, 7]: increased contractility
mean arterial pressure (MAP) at ED50 [3, 7]: more potent decrease in mean arterial pressure (MAP) than carvedilol
ED50 ([3]; Oryctolagus cuniculus, isoproterenol challenge (0.5 μg/kg), intravenous, read-out: ED50, dose that diminished isoproterenol-dependent increase in HR by 50%): 0.3 mg/kg
relaxation properties (Tau) at ED50 ([3]; compared to control, Protocol 1, FIG. 13): did not change the relaxation properties (Tau)
β-adrenergic antagonism on heart rate (HR) ([3]; during isoproterenol challenge (0.5 μg/kg), FIG. 11): dose-dependent β-adrenergic antagonism
contractility in naive anesthetized canines [4]: increased contractility in a dose-dependent manner
heart rate when administered alone ([5]; Protocol 2, with and without atropine and bilateral vagotomy (FIG. 16)): minimal effect on heart rate; also recorded: did not increase heart rate
left ventricular contractility when administered alone ([5]; protocol 2, relative to control, FIGS. 2, 12): increased or maintained contractility in a dose-dependent manner
β-adrenergic antagonism on left ventricular contractility [6]: potent dose-dependent β-adrenergic antagonism
IC50 (β1-adrenergic receptor): 2 nM
